Data from patent publication US7737250B2, “Peptides for treating axonal damage, inhibition of neurotransmitter release and pain transmission, and blocking calcium influx in neurons” (Mount Sinai School of Medicine of New York University, priority 2003, dated 2010).

Experiments:
Cav2.2 channels = assay: Calcium channel distribution by confocal indirect immunofluorescence in DRG neurons; assay type: cell-based, chicken; conditions: DRG neurons pretreated with peptide 1.4 μg/ml, 30 min
Method: Antibodies: Primary antibody: rabbit anti-pan α1 binds Ca channel (1:200 dilution, [1.5 μg/ml) [Alomone Labs; Jerusalem, Israel]. Secondary antibodies: (1:200 dilution, 10 μg/ml): tetramenthylrhodamine conjugated goat anti-rabbit IgG (H+L) [Molecular Probes; Eugene, OR]
Dorsal root ganglia were dissected from 11 to 12 day old embryos, incubated for 30 min in saline containing nominal Ca 2^+ and Mg 2^+, and 0.05% collagenase (type A, Boehringer Mannheim). Ganglia were dissociated mechanically into single cells by trituration in culture medium containing Dulbecco's modified Eagle's medium supplemented with 10% horse serum, 5% chicken embryo extract, penicillin, streptomycin, glutamine, and nerve growth factor. Cells were plated at a density of ˜50,000 cells/collagen-coated 35 mm tissue culture dish and studied between 1 and 3 days in vitro.
Immunohistochemistry: Cultures grown on poly-L-lysine cover glass slips were exposed to saline or 100 mM NE (norepinephrine), fixed and permeabilized in methanol at −20° C. for 15-minutes or 20 second (for residual experiment) followed by 3×5-min washes in PHEM Buffer [60 mM PIPES, 25 mM HEPES, 10 mM EGTA, 2 mM MgCl2, pH 6.9]. Cells were alternatively fixed with 4% paraformaldehyde in PHEM buffer, pH 6.9 for 20-min, washed 3×3-min with PHEM buffer and permeabilization with 0.1% Triton X-100/PHEM buffer for 3-min. Blocking was performed using 5% BSA in PHEM Buffer for 1-h at 4 C. Following overnight incubation with primary antibody in 1% BSA and 1% normal goat sera in PHEM Buffer at 4 C. After washes with PHEM Buffer, cover slips were incubated with fluorophore-conjugated secondary antibodies in 1% BSA PHEM Buffer for 1.5 hours at room temperature in the dark. […]
Images of fixed cells were obtained with a pinhole setting of 0.95 using a UV 100× 1.4NA oil Leica objective lens and an optical zoom between 1.4 and 2× at slow acquisition speed with 4× frame averaging accumulation. The number of sections was calculated by the Leica TCS software based on acquisition of sections at 240 nm intervals in the Z-plane. […]

[1] = system: mouse cerebellar granular neurons; assay: Neurite outgrowth assay; assay type: cell-based; conditions: 30 μg/ml peptide; for average neurite length: 24 h in culture
Method: For neurite outgrowth assays, chick Ng-CAM was purified from chick brain using an antibody-based affinity column according to techniques well known in the art. The anti-Ng-CAM antibody was antibody 8D9 (Developmental Studies Hybridoma Bank, University of Iowa). Then purified chick Ng-CAM (50 μg/ml) or mouse laminin (Invitrogen, 100 μg/ml) was spotted on a 35 mm plastic culture dish at room temperature (RT) for 1 hr. After washing with PBS, the plastic surface was blocked with 1% Bovine Serum Albumin in phosphate buffered saline (13SA/PBS) at RT. Negative control dishes were coated with 1% Bovine Serum Albumin in phosphate buffered saline (BSA/PBS) at RT.
Cerebellar cells were prepared from postnatal day 4 (P4) mouse by trypsinization followed by trituration. Postnatal day 4 (P4) mouse cerebellum was minced in Calcium/Magnesium-free phosphate buffer (Ca/Mg-free PBS). Minced cerebellum was then treated with 0.05% Trypsin (Gibco) in Ca/Mg-free PBS for 15 minutes at 37° C. Trypsinization was halted by addition of 10% Fetal Calf Serum (Hyclone). Trypsinized cells were then triturated 5 times with a fire-polished Pasteur pipette to dissociate the cells. The remaining cell clumps were allowed to settle, and the suspended cells were plated and maintained for use in the neurite outgrowth assays.
Cultured cerebellar cells were resuspended in BME/B-27 medium (BME medium plus B-27 supplement, both from Gibco) supplemented with penicillin/streptomycin (Gibco) to a cell density of 5×10^5 cells/ml. Then 250 μl of this cell suspension was plated on the dishes. AP-YF or AP-Scramble peptides dissolved in Hank's Balanced Salt Solution (Gibco) were added to the plated cells at final concentration of 30 μg/ml. Cultures were incubated at 37° C. for 24 hrs in 5% CO2. These cultures were fixed with 4% paraformaldehyde and images were collected on a Zeiss Axiovert 100TV microscope using a 100× plan neofluor objective. Neurite outgrowth measurements were performed using NIH image software. Data was expressed as average neurite length in μm (+/− standard deviation). P-values were determined using Student's t-test analysis. Microsoft Excel was used to plot the data as % neurites of length greater than Xpm versus neurite length X (in μm).
Mouse cerebellar granular neurons were plated on tissue culture dishes coated with chick Ng-CAM, a chick homolog of L1-CAM, or on tissue culture dishes coated with mouse laminin. The Ng-CAM substrate interacts with cell-surface L1-CAM, while laminin substrate interacts with cell surface integrins and therefore serves as the negative control. These cultures were treated with either AP-YF or AP-Scramble peptides. After 24 hours of culture, the neurons were fixed and neurite outgrowth lengths w-ere measured by NIH image software degree (in μm).

[2] = system: complex containing L1-CAM, ankyrin B and Cav2.2; assay: Co-precipitation of L1-CAM and ankyrin B with Cav2.2 channel protein from DRG neurons; assay type: cell-based; conditions: chick DRG neurons treated with saline; peptide pretreatment
Method: Co-precipitation: 1×10^6 DRG cells were used for each condition. DRG neurons were exposed to control solution containing 100 μM bicuculline or 100 μM GABA in the presence of 100 μM bicuculline. After agonist treatment, DRG neurons were lysed with ice-cold buffer (phosphate buffered saline, pH 7.4, containing 250 μM sodium pervanadate, 1% (v/v) NP-40, 1 mM Pefabloc, 1 mM EDTA, 1 mM EGTA, 10 μg/ml pepstatin, 10 μg/ml leupeptin, and 100 μg/ml soybean trypsin inhibitor, 100 μg/ml calpain I and 100 μg/ml calpain II inhibitors. The α1subunit of the Cav2.2 channel was immunoprecipitated as previously described (Schiff, M. L et al., (2000). Nature 408:723-726.).
Cell culture, transmitter application: Cell culture and transmitter application, were performed as described in Example 10, supra. For experiments determining the effect of activation of GABAB receptors upon L1-CAM-ankyrin-calcium channel interaction in DRG neurons, calcium channels were precipitated from DRG neurons treated with saline or baclofen for 20 seconds using anti-pan alpha 1 antibody and then immunoblotted for ankyrin (anti-ankyrin B antibody) or L1-CAM (8D9 anti-NgCAM).

Sequence	Cav2.2 channel distribution (plasma membrane vs cytoplasm) (Cav2.2 channels)	neurite extension above control levels ([1]; on Ng-CAM substrate, 24 h, vs AP-Scramble) [%]	average neurite length ([1]; on Ng-CAM substrate) [μm]	axon extension on laminin ([1]; on laminin substrate, 24 h, vs AP-Scramble)	co-precipitation of L1-CAM and ankyrin B with Cav2.2 channel protein [2]
RQIKIWFQNRRMKWKKQFNEDGSFIGQF [AP-YF]	induces removal of Cav2.2 channels	55	32	not significantly affected	abolished the interaction
RQIKIWFQNRRMKWKKFQGIFSGDENFQ [AP-Scramble]	no effect		21		not
